Test results published in the supplement of paper PMC10307832.

These cell lines were tested with COC1=CC=C(C=C1)CN2C=CC3=C2C=C(C=C3)C(=O)NO + Cc1nc(NC(=O)N2CCC[C@H]2C(N)=O)sc1-c1ccnc(C(C)(C)C(F)(F)F)c1 [Alpelisib] (partner 2 µM) (assay: relative viability (nuclei count vs DMSO), 5 days (fraction); higher = more cells survive). Conditions: first compound 8 µM.
Summary of the method: (§1)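 Nuclei were stained with Hoechst during a one-step fixation (final 0.05% Triton X-100, 1% formaldehyde, 1 ug/ml Hoechst) carried out 5 days after dosing, then counted on 4× images. The cells, lung cancer lines in 1536-well plates, had been dosed by pin tool the day after seeding with one drug alone or a fixed anchor-drug dose plus five library-drug doses (not always all listed) in √10 steps. Relative viability is the nuclei count in treated wells divided by that in vehicle wells, and each value is the median of duplicate plates.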

Row | Cell Line | relative viability
1 | LC-2-ad | 0.877
2 | A549 | 0.58
3 | NCI-H1563 | 0.839
4 | NCI-H1703 | 0.381
5 | Calu-6 | 0.815
6 | NCI-H2170 | 0.838
7 | HCC-366 | 0.406

What follows are cell lines tested with C[C@]1(c2nc3c(C(N)=O)cccc3[nH]2)CCCN1 [Veliparib] + CC(=O)Nc1cccc(-n2c(=O)n(C3CC3)c(=O)c3c(Nc4ccc(I)cc4F)n(C)c(=O)c(C)c32)c1 [Trametinib] (partner 0.02 µM) in the same assay as above. Conditions: first compound 0.02 µM.
Summary of the method: as §1

Row | Cell Line | relative viability
8 | NCI-H2342 | 0.76
9 | LU99A | 0.552
10 | NCI-H1975 | 0.339
11 | H3255 | 0.614
12 | NCI-H2405 | 0.627
13 | SK-LU-1 | 0.561
14 | NCI-H1437 | 0.502
15 | NCI-H596 | 0.83
16 | HCC-15 | 0.422
17 | NCI-H460 | 0.185
18 | EMC-BAC-2 | 1.01
19 | NCI-H2009 | 0.289
20 | COR-L 105 | 0.448
21 | NCI-H1395 | 0.995
22 | NCI-H520 | 0.749
23 | NCI-H1648 | 0.631
24 | NCI-H358 | 0.0965
25 | HCC-78 | 0.84
26 | NCI-H1650 | 0.335
27 | LK-2 | 0.773
28 | LXF-289 | 0.671
29 | LC-2-ad | 0.897
30 | NCI-H522 | 0.716
31 | ChaGo-K-1 | 0.673
32 | NCI-H2170 | 0.872
33 | HCC-366 | 0.375

Same assay, conditions: first compound 0.06325 µM

Row | Cell Line | relative viability
34 | NCI-H2342 | 0.81
35 | LU99A | 0.536
36 | NCI-H1975 | 0.335
37 | H3255 | 0.572
38 | NCI-H2023 | 0.636
39 | SK-LU-1 | 0.519
40 | NCI-H1734 | 0.613
41 | NCI-H1437 | 0.527
42 | NCI-H596 | 0.666
43 | HCC-15 | 0.374
44 | NCI-H460 | 0.0956
45 | NCI-H2009 | 0.291
46 | COR-L 105 | 0.463
47 | NCI-H1395 | 0.96
48 | NCI-H520 | 0.68
49 | NCI-H358 | 0.12
50 | HCC-78 | 0.701
51 | EKVX | 0.317
52 | NCI-H1650 | 0.374
53 | EPLC-272H | 0.303
54 | LK-2 | 0.773
55 | PC-14 | 0.664
56 | LXF-289 | 0.691
57 | LC-2-ad | 0.904
58 | SW 900 | 0.75
59 | NCI-H522 | 0.608
60 | ChaGo-K-1 | 0.842
61 | NCI-H2170 | 1.02
62 | HCC-366 | 0.312

Same assay, conditions: first compound 0.2 µM

Row | Cell Line | relative viability
63 | NCI-H2342 | 0.701
64 | LU99A | 0.566
65 | NCI-H1975 | 0.329
66 | H3255 | 0.672
67 | NCI-H2023 | 0.563
68 | NCI-H2405 | 0.64
69 | SK-LU-1 | 0.607
70 | NCI-H1734 | 0.792
71 | NCI-H1437 | 0.514
72 | NCI-H596 | 0.77
73 | HCC-15 | 0.429
74 | NCI-H460 | 0.1
75 | EMC-BAC-2 | 0.922
76 | NCI-H2009 | 0.316
77 | COR-L 105 | 0.475
78 | NCI-H1395 | 0.924
